Laboratory results: ChEMBL document CHEMBL4229333, “Effects of rigidity on the selectivity of protein kinase inhibitors” (Eur J Med Chem, 2018)

Experiments:
[1] = molecular target: Tyrosine-protein kinase FRK (Homo sapiens) (UniProt P42685); assay: Inhibition of PTK5 (unknown origin) at 1 uM by mobility shift microfluidics platform based assay relative to control
[2] = molecular target: Mitogen-activated protein kinase 8 (Homo sapiens) (UniProt P45983); assay: Inhibition of JNK1 (unknown origin) at 1 uM by mobility shift microfluidics platform based assay relative to control
[3] = molecular target: Serine/threonine-protein kinase TBK1 (Homo sapiens) (UniProt Q9UHD2); assay: Inhibition of TBK1 (unknown origin) at 1 uM by mobility shift microfluidics platform based assay relative to control
[4] = molecular target: TRAF2 and NCK-interacting protein kinase (Homo sapiens) (UniProt Q9UKE5); assay: Inhibition of TNIK (unknown origin) at 1 uM by mobility shift microfluidics platform based assay relative to control
[5] = molecular target: Fibroblast growth factor receptor 1 (Homo sapiens) (UniProt P11362); assay: Inhibition of FGFR1 (unknown origin) at 1 uM by mobility shift microfluidics platform based assay relative to control
[6] = molecular target: Muscle, skeletal receptor tyrosine-protein kinase (Homo sapiens) (UniProt O15146); assay: Inhibition of MUSK (unknown origin) at 1 uM by mobility shift microfluidics platform based assay relative to control
[7] = molecular target: Cyclin-dependent kinase 5 (Homo sapiens) (UniProt Q00535); assay: Inhibition of CDK5 (unknown origin) at 1 uM by mobility shift microfluidics platform based assay relative to control
[8] = molecular target: Eukaryotic translation initiation factor 2-alpha kinase 3 (Homo sapiens) (UniProt Q9NZJ5); assay: Inhibition of PERK (unknown origin) at 1 uM by mobility shift microfluidics platform based assay relative to control
[9] = molecular target: Tyrosine-protein kinase ITK/TSK (Homo sapiens) (UniProt Q08881); assay: Inhibition of ITK (unknown origin) at 1 uM by mobility shift microfluidics platform based assay relative to control
[10] = molecular target: Proto-oncogene tyrosine-protein kinase Src (Homo sapiens) (UniProt P12931); assay: Inhibition of SRC (unknown origin) at 1 uM by mobility shift microfluidics platform based assay relative to control
[11] = molecular target: Ephrin type-A receptor 3 (Homo sapiens) (UniProt P29320); assay: Inhibition of EPH-A3 (unknown origin) at 1 uM by mobility shift microfluidics platform based assay relative to control
[12] = molecular target: Serine/threonine-protein kinase Nek2 (Homo sapiens) (UniProt P51955); assay: Inhibition of NEK2 (unknown origin) at 1 uM by mobility shift microfluidics platform based assay relative to control
[13] = molecular target: Calcium/calmodulin-dependent protein kinase type II subunit gamma (Homo sapiens) (UniProt Q13555); assay: Inhibition of CAMK2G (unknown origin) at 1 uM by mobility shift microfluidics platform based assay relative to control
[14] = molecular target: Serine/threonine-protein kinase PAK 2 (Homo sapiens) (UniProt Q13177); assay: Inhibition of PAK2 (unknown origin) at 1 uM by mobility shift microfluidics platform based assay relative to control
[15] = molecular target: Platelet-derived growth factor receptor alpha (Homo sapiens) (UniProt P16234); assay: Inhibition of PDGFR-alpha (unknown origin) at 1 uM by mobility shift microfluidics platform based assay relative to control
[16] = molecular target: Serine/threonine-protein kinase D3 (Homo sapiens) (UniProt O94806); assay: Inhibition of PRKD3 (unknown origin) at 1 uM by mobility shift microfluidics platform based assay relative to control
[17] = molecular target: MAP kinase-interacting serine/threonine-protein kinase 1 (Homo sapiens) (UniProt Q9BUB5); assay: Inhibition of MKNK1 (unknown origin) at 1 uM by mobility shift microfluidics platform based assay relative to control
[18] = molecular target: Serine/threonine-protein kinase SIK1 (Homo sapiens) (UniProt P57059); assay: Inhibition of SIK (unknown origin) at 1 uM by mobility shift microfluidics platform based assay relative to control
[19] = molecular target: Serine/threonine-protein kinase TAO3 (Homo sapiens) (UniProt Q9H2K8); assay: Inhibition of TAOK3 (unknown origin) at 1 uM by mobility shift microfluidics platform based assay relative to control
[20] = molecular target: Mast/stem cell growth factor receptor Kit (Homo sapiens) (UniProt P10721); assay: Inhibition of KIT (unknown origin) at 1 uM by mobility shift microfluidics platform based assay relative to control
[21] = molecular target: Ephrin type-A receptor 8 (Homo sapiens) (UniProt P29322); assay: Inhibition of EPH-A8 (unknown origin) at 1 uM by mobility shift microfluidics platform based assay relative to control
[22] = molecular target: Serine/threonine-protein kinase PLK1 (Homo sapiens) (UniProt P53350); assay: Inhibition of PLK1 (unknown origin) at 1 uM by mobility shift microfluidics platform based assay relative to control
[23] = molecular target: Protein kinase C gamma type (Homo sapiens) (UniProt P05129); assay: Inhibition of PKC-gamma (unknown origin) at 1 uM by mobility shift microfluidics platform based assay relative to control
[24] = molecular target: Tyrosine-protein kinase HCK (Homo sapiens) (UniProt P08631); assay: Inhibition of HCK (unknown origin) at 1 uM by mobility shift microfluidics platform based assay relative to control
[25] = molecular target: Phosphorylase b kinase gamma catalytic chain, skeletal muscle/heart isoform (Homo sapiens) (UniProt Q16816); assay: Inhibition of PHK-gamma1 (unknown origin) at 1 uM by mobility shift microfluidics platform based assay relative to control
[26] = molecular target: ALK tyrosine kinase receptor (Homo sapiens) (UniProt Q9UM73); assay: Inhibition of ALK (unknown origin) at 1 uM by mobility shift microfluidics platform based assay relative to control
[27] = molecular target: Ephrin type-B receptor 1 (Homo sapiens) (UniProt P54762); assay: Inhibition of EPH-B1 (unknown origin) at 1 uM by mobility shift microfluidics platform based assay relative to control
[28] = molecular target: Homeodomain-interacting protein kinase 4 (Homo sapiens) (UniProt Q8NE63); assay: Inhibition of HIPK4 (unknown origin) at 1 uM by mobility shift microfluidics platform based assay relative to control
Homo sapiens = species on record: Homo sapiens; assay: Inhibition of CDK/Cyclin E (unknown origin) at 1 uM by mobility shift microfluidics platform based assay relative to control
[29] = molecular target: Serine/threonine-protein kinase Nek9 (Homo sapiens) (UniProt Q8TD19); assay: Inhibition of NEK9 (unknown origin) at 1 uM by mobility shift microfluidics platform based assay relative to control
[30] = molecular target: Casein kinase I isoform gamma-1 (Homo sapiens) (UniProt Q9HCP0); assay: Inhibition of CK1-gamma1 (unknown origin) at 1 uM by mobility shift microfluidics platform based assay relative to control
[31] = molecular target: Sphingosine kinase 1 (Homo sapiens) (UniProt Q9NYA1); assay: Inhibition of SPHK1 (unknown origin) at 1 uM by mobility shift microfluidics platform based assay relative to control
[32] = molecular target: Dual specificity protein kinase TTK (Homo sapiens) (UniProt P33981); assay: Inhibition of TTK (unknown origin) at 1 uM by mobility shift microfluidics platform based assay relative to control
[33] = molecular target: Homeodomain-interacting protein kinase 3 (Homo sapiens) (UniProt Q9H422); assay: Inhibition of HIPK3 (unknown origin) at 1 uM by mobility shift microfluidics platform based assay relative to control

Sequence of Homeodomain-interacting protein kinase 4 (Homo sapiens) (Q8NE63 whole entry): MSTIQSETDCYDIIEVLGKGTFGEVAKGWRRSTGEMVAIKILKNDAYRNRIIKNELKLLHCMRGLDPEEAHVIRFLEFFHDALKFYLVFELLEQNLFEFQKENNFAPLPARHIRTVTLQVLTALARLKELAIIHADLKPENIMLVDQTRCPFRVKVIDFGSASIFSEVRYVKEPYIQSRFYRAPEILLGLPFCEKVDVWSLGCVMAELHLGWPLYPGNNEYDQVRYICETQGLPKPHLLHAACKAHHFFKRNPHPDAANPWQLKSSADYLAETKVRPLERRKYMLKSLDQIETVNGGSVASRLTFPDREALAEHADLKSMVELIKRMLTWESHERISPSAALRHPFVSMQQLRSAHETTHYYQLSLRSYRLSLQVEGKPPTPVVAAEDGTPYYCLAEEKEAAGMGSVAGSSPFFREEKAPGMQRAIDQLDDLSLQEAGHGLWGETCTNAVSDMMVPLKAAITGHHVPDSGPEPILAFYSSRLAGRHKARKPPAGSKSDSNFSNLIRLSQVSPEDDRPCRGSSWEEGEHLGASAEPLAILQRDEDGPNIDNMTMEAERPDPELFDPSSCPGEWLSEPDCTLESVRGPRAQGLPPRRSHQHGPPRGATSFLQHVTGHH
Sequence of Serine/threonine-protein kinase PLK1 (Homo sapiens) (P53350 whole entry): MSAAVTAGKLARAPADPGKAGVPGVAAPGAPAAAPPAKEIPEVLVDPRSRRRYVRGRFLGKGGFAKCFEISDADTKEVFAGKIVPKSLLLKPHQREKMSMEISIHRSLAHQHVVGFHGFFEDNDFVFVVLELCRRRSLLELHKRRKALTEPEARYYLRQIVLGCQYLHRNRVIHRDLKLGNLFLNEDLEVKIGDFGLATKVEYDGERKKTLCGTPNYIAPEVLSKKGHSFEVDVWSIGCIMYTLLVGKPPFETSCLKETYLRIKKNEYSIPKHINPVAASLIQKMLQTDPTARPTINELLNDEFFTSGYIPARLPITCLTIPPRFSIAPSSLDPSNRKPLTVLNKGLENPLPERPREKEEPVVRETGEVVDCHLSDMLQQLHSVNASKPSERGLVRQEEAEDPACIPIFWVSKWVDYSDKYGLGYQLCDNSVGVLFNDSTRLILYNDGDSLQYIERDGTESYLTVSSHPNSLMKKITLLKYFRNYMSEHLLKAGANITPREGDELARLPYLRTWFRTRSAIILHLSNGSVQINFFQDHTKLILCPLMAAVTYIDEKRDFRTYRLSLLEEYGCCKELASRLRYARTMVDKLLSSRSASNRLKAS
Sequence of Casein kinase I isoform gamma-1 (Homo sapiens) (Q9HCP0 whole entry, looked up, canonical isoform): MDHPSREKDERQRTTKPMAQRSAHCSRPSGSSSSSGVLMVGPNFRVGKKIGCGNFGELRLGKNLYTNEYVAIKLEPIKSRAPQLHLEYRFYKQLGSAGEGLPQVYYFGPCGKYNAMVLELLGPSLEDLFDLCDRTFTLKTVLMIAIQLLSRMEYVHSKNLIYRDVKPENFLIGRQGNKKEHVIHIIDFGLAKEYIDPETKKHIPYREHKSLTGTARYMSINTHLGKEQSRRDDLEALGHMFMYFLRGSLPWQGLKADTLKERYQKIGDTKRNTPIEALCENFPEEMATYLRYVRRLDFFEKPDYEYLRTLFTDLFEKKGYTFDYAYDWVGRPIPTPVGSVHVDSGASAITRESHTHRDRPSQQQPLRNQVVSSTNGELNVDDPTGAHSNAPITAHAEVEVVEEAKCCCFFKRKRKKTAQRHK
Sequence of Proto-oncogene tyrosine-protein kinase Src (Homo sapiens) (P12931 2-536 limits assumed): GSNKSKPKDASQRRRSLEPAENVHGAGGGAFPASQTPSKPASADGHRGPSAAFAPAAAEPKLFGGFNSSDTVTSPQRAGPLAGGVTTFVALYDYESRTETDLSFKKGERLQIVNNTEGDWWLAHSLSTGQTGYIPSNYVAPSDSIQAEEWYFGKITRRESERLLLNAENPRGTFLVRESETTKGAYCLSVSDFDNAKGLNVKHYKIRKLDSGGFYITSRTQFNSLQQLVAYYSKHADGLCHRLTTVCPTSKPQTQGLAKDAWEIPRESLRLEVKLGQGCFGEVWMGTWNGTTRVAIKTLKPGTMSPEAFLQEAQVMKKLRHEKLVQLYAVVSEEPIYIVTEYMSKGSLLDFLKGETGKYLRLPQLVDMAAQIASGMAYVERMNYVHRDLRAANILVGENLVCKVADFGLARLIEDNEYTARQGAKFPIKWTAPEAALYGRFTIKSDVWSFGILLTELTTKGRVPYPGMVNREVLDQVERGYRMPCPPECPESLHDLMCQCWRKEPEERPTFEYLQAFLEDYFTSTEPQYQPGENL
Sequence of Muscle, skeletal receptor tyrosine-protein kinase (Homo sapiens) (O15146 whole entry): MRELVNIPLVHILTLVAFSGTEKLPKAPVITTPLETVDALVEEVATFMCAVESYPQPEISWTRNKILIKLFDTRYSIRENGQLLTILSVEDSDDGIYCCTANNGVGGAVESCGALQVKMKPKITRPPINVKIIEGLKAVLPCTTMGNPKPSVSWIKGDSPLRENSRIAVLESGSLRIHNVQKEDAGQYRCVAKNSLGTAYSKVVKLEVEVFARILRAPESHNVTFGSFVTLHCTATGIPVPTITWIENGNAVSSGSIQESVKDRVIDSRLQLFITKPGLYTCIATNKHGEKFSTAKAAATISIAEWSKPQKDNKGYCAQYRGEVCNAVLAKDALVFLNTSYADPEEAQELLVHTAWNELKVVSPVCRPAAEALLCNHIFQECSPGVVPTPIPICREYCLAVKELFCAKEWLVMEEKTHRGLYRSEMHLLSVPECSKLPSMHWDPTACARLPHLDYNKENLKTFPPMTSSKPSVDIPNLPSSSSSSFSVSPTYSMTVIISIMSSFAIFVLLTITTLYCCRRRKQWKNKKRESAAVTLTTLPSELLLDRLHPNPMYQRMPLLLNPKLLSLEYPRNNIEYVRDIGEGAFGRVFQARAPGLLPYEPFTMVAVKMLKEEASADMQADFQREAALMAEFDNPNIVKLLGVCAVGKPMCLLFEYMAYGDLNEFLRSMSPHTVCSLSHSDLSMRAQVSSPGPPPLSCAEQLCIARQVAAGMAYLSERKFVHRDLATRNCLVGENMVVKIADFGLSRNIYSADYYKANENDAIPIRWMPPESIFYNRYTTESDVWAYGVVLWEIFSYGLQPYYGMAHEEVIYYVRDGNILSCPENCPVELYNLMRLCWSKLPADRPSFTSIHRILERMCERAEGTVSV
Sequence of Mitogen-activated protein kinase 8 (Homo sapiens) (P45983 whole entry): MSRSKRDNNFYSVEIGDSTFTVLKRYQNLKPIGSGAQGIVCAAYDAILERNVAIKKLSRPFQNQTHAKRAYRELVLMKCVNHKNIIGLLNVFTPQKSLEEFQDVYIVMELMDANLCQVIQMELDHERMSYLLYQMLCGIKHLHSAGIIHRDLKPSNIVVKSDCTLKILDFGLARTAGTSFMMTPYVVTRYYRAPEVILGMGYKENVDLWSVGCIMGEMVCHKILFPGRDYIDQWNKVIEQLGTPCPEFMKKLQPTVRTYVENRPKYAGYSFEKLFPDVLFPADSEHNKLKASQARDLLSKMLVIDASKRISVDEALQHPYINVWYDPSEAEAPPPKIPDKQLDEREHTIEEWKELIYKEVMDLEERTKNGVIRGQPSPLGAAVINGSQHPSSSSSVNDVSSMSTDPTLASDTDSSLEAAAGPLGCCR
Sequence of Fibroblast growth factor receptor 1 (Homo sapiens) (P11362 22-822 limits assumed): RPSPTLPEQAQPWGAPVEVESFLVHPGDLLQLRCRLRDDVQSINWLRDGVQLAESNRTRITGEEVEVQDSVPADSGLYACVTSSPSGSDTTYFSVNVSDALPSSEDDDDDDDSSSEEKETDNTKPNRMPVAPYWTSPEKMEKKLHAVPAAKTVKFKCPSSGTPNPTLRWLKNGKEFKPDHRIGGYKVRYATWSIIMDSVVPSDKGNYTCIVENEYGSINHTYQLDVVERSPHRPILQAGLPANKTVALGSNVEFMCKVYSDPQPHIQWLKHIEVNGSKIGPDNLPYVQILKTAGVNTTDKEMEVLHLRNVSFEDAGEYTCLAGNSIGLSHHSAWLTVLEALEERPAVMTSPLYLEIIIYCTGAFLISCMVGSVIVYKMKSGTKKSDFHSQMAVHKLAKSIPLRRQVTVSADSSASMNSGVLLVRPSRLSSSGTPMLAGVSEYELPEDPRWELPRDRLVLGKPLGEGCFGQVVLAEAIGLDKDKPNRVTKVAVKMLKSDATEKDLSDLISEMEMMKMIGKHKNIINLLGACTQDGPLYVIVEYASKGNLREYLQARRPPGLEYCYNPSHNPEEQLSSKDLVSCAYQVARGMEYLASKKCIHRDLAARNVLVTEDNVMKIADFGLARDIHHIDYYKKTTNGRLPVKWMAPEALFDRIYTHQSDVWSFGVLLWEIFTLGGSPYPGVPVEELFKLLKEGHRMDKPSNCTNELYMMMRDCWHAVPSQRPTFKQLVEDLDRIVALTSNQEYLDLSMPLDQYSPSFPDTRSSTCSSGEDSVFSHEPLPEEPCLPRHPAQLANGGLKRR

Row | inhibition [1] | inhibition [2] | inhibition [3] | inhibition [4] | inhibition [5] | inhibition [6] | inhibition [7] | inhibition [8] | inhibition [9] | inhibition [10] | inhibition [11] | inhibition [12] | inhibition [13] | inhibition [14] | inhibition [15] | inhibition [16] | inhibition [17] | inhibition [18] | inhibition [19] | inhibition [20] | Structure (SMILES) | also measured
1 | 95% | -9% | 6% | 71% | 98% | 8% | 2% | 29% | 23% | 100% | 98% | -1% | 0% | 1% | 100% | -1% | 0% | 43% | 37% | 98% | CC(C)n1nc(C#Cc2cccc(NC(=O)c3cccc(C(F)(F)F)c3)c2)c2c(N)ncnc21 | inhibition [21]: 100%; inhibition [22]: 1%; inhibition [23]: -1%; inhibition [24]: 107%; inhibition [25]: -3%; inhibition [26]: 6%; inhibition [27]: 97%; inhibition [28]: 29%; inhibition (Homo sapiens): 1 to 3%; inhibition [29]: 2%; inhibition [30]: 9%; inhibition [31]: 2%; inhibition [32]: 33%; inhibition [33]: 0%
2 | 18% | 2% | 1% | 4% | 91% | 3% | 3% | 0% | 10% | 80% | 76% | 0% | 2% | -2% | 94% | 1% | 2% | 7% | 33% | 97% | CC(C)n1nc(C#Cc2cccc3cc(-c4cccc(C(F)(F)F)c4)ncc23)c2c(N)ncnc21 | inhibition [21]: 97%; inhibition [22]: 1%; inhibition [23]: 2%; inhibition [24]: 81%; inhibition [25]: 10%; inhibition [26]: 1%; inhibition [27]: 84%; inhibition [28]: 9%; inhibition (Homo sapiens): -1 to 3%; inhibition [29]: -1%; inhibition [30]: -5%; inhibition [31]: 4%; inhibition [32]: -3%; inhibition [33]: -1%
